Data taken from patent publication EP0533925A1, “OPTICAL ISOMER OF R-FORM OF DIPHENYL ETHER DERIVATIVE AND HERBICIDE CONTAINING THE SAME AS ACTIVE INGREDIENT” (TEIJIN LIMITED, priority 1990, dated 1991).
Structures can show the parent of a compound that is named as a salt.

What was measured:
Type in all cases: in vivo
Set-up in all cases: key: 0 means the state where the plants are as sound as before the application of the active compound; 1, 2, 3 and 4 mean varying degrees of the enfeebled state of the plants between 0 and 5; 1, 2, 3 and 4 mean varying degrees of the enfeebled state of the plants between 0 and 5; 1, 2, 3 and 4 mean varying degrees of the enfeebled state of the plants between 0 and 5; 1, 2, 3 and 4 mean varying degrees of the enfeebled state of the plants between 0 and 5; 5 is the state where the plants are withered or killed by application of the active compound
Sorghum halepense = assay: Herbicidal activity, spray of diphenyl ether with N-phosphonomethylglycine derivative (Test Examples 6 to 10); conditions: Application 0.375 Kg/ha (117) alone
Procedure: (§1) In these examples, all parts means parts by weight, unless otherwise noted. The herbicidal activity was evaluated on a scale of 6 degrees. In other words, 0 means the state where the plants are as sound as before the application of the active compound, while 5 is the state where the plants are withered or killed by application of the active compound, and 1, 2, 3 and 4 mean varying degrees of the enfeebled state of the plants between 0 and 5.
(§2) In each run, the diphenyl ether derivatives and the N-phosphonomethylglycine derivatives shown in Table 3 (in the indicated mixing ratios) was dissolved in 16 parts by volume of a mixture of water and acetone (1 : 1 by volume; containing 0.05 % of a nonionic surfactant, Sorpol-2680) in the indicated mixing ratio, respectively, to prepare spray solutions.
(§3) The plants tested were grown in vinyl resin pots (diameter 10 cm) filled with soil in a green house for 2 to 3 weeks after germination from seeds or tubers.
(§4) The spray solution was applied to the plants so that the total volume sprayed became 4 cc/100 cm², and the herbicidal activity was examined.
(§5) The alphabetical symbols in Tables 2 and 3 represent the following plants, respectively: a: Digitaria adscendens b: Setaria viridis c: Sorghum halepense d: Chenopodium album var. centrorubrum e: Amaranthus mangostanus f: Astragalus sinicus g: Abutilon theophrosti h: Solanum nigrum i: Xanthium strumarium j: Soybean; Glycine max k: Corn; Zea mays Table 2

[1] = tested on: Chenopodium album var. centrorubrum; assay: as above; conditions: Application 0.375 Kg/ha (117) alone
Procedure: as §1, §2, §3, §4, §5

Abutilon theophrosti = assay: as above; conditions: Application 0.375 Kg/ha (117) alone
Procedure: as §1, §2, §3, §4, §5

Amaranthus mangostanus [2] = assay: as above; conditions: Application 0.375 Kg/ha (117) alone
Procedure: as §1, §2, §3, §4, §5

Setaria viridis = assay: as above; conditions: Application 0.375 Kg/ha (117) alone
Procedure: as §1, §2, §3, §4, §5

[3] = tested on: Chenopodium album var. centrorubrum; assay: Herbicidal activity, foliar application of single compounds (Test Examples 1 to 5); conditions: 3 weeks after application
Procedure: as §1
(§6) The diphenyl ethers shown in Table 2 were added to 5000 parts of a mixture of acetone and water (1 : 1 by volume), and 2.6 parts of a nonionic surfactant (Sorpol 2680, tradename) was added to form a solution, so that the ether becomes the prescribed amount in each solution.
(§7) Seeds of plants were sown in the soil, cultivated for 2 to 3 weeks, after germination, then the plants were used for the tests.
(§8) The prepared solution was applied to these plants at the prescribed rate of application in total, then the plants were continuously cultivated for 3 weeks without applying the solution.
as §5

Amaranthus mangostanus [4] = assay: as above; conditions: 3 weeks after application
Procedure: as §1, §6, §7, §8, §5

Xanthium strumarium = assay: as above; conditions: 3 weeks after application
Procedure: as §1, §6, §7, §8, §5

[5] = Rate of Application 0.016 kg/ha
[6] = Rate of Application 0.031 kg/ha

O=C(O)CNCP(=O)(O)O [Compound (117), N-phosphonomethylglycine isopropylammonium salt]
0: herbicidal activity, Plants c (Sorghum halepense; 3 days after treatment) | herbicidal activity, Plants c (Sorghum halepense; 7 days after treatment) | herbicidal activity, Plants d ([1]; 3 days after treatment) | herbicidal activity, Plants d ([1]; 7 days after treatment) | herbicidal activity, Plants g (Abutilon theophrosti; 3 days after treatment) | herbicidal activity, Plants e (Amaranthus mangostanus [2]; 3 days after treatment) | herbicidal activity, Plants e (Amaranthus mangostanus [2]; 7 days after treatment) | herbicidal activity, Plants e (Amaranthus mangostanus [2]; 14 days after treatment) | herbicidal activity, Plants b (Setaria viridis; 3 days after treatment) | herbicidal activity, Plants b (Setaria viridis; 7 days after treatment)
1: herbicidal activity, Plants c (Sorghum halepense; 14 days after treatment) | herbicidal activity, Plants d ([1]; 14 days after treatment) | herbicidal activity, Plants g (Abutilon theophrosti; 7 days after treatment) | herbicidal activity, Plants g (Abutilon theophrosti; 14 days after treatment) | herbicidal activity, Plants b (Setaria viridis; 14 days after treatment)

COC(=O)C(C)Oc1cc(Oc2ccc(C(F)(F)F)cc2Cl)ccc1C#N (stereo not drawn) [Compound (1), Methyl α-[2-cyano-5-(2-chloro-4-trifluoromethylphenoxy)phenoxy]propionate]
5: herbicidal activity, Plants d [3, 5] | herbicidal activity, Plants d [3, 6] | herbicidal activity, Plants e (Amaranthus mangostanus [4]; [5]) | herbicidal activity, Plants e (Amaranthus mangostanus [4]; [6]) | herbicidal activity, Plants i (Xanthium strumarium; [5]) | herbicidal activity, Plants i (Xanthium strumarium; [6])
